SMILES strings stand for the structures.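 In this assay, cells in 96-well plates receive the compound at five concentrations for 48 hours. Endpoints are linearly interpolated between the surrounding concentrations. GI50: concentration for 50% inhibition of growth.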 Active and inactive are the calls of the source. No stated cut-off is given here; in the data, active = GI50 up to about 1.1 µM and inactive = higher.

Some test systems named below: 786-0; A498; A549; ACHN; CAKI-1; COLO 205; HCT-15; HOP-62; IGROV-1; K562; MOLT-4; NCI-H23; NCI-H460; OVCAR-4; SK-MEL-2; SNB-75; DU-145; MDA-MB-231; MDA-MB-435.
Common to all, as to experiment: DTP human tumour cell line panel, 48 h

In the case of `COC(=O)C(=O)C(C(C)=O)C(=O)NCc1ccccc1` (configuration not stated), the GI50 in the assay with 786-0, in the assay with A498, in the assay with A549, in the assay with ACHN, with CAKI-1 and in the assay on COLO 205 was > 100 µM (inactive) each time. For the same compound, the GI50 with HCT-15 was over 100 µM; with HOP-62, > 100 µM (inactive); in the assay with IGROV-1 it was > 100 µM (inactive); in the assay on K562 it was > 100 µM (inactive); in the assay on MOLT-4 it was > 100 µM (inactive); in the assay with NCI-H23, > 100 µM (inactive). For the same compound, the GI50 in the assay on NCI-H460, in the assay on OVCAR-4, with SK-MEL-2 and in the assay on SNB-75 was > 100 µM (inactive) throughout.
Turning to `CC1(c2ccc(F)cc2)C2C(=O)NC(=O)C1C(=O)NC2=O` (configuration not stated), the GI50 in the assay with 786-0, in the assay with A498, with A549, in the assay with ACHN, in the assay with CAKI-1 and in the assay on COLO 205 was > 100 µM (inactive) each time. Besides, the GI50 with HCT-15 is over 100 µM; with IGROV-1, > 100 µM (inactive); in the assay on K562, > 100 µM (inactive); with MOLT-4, > 100 µM (inactive); in the assay on NCI-H23, > 100 µM (inactive); in the assay on NCI-H460, > 100 µM (inactive). The GI50 in the assay with OVCAR-4, in the assay with SK-MEL-2 and in the assay with SNB-75 was > 100 µM (inactive) each time.
In the case of `Cc1cc(N(CCC#N)CCC#N)ccc1/C=C1N=C(/C=C/c2ccccc2)N(c2ccc(S(N)(=O)=O)cc2)C\1=O`, the GI50 with 786-0, with A498, in the assay with A549, in the assay on ACHN, in the assay on CAKI-1 and in the assay on COLO 205 was > 100 µM (inactive) throughout. In addition, the GI50 was over 100 µM with HCT-15; > 100 µM (inactive) in the assay with HOP-62; > 100 µM (inactive) in the assay with IGROV-1; > 100 µM (inactive) with K562; > 100 µM (inactive) in the assay with MOLT-4; > 100 µM (inactive) in the assay with NCI-H23. For the same compound, the GI50 with NCI-H460, in the assay on OVCAR-4, in the assay on SK-MEL-2 and in the assay on SNB-75 was > 100 µM (inactive) in each case.
Turning to `O=C(Cc1ccccc1)N/N=C(\C1=Nc2ccc([N+](=O)[O-])cc2NC1O)C(O)c1ccc([N+](=O)[O-])cc1` (configuration not stated), the GI50 in the assay on 786-0 is > 100 µM (inactive); with A498, > 100 µM (inactive); with A549, > 100 µM (inactive); in the assay on ACHN, 78 µM (inactive); in the assay with CAKI-1 it was > 100 µM (inactive); in the assay with COLO 205, 64.1 µM (inactive). Also, the GI50 in the assay on HCT-15 was over 100 µM; with HOP-62, > 100 µM (inactive); with IGROV-1, > 100 µM (inactive); in the assay on K562, 28.2 µM (inactive); in the assay on NCI-H23, > 100 µM (inactive); in the assay with NCI-H460, > 100 µM (inactive). In addition, the figures for the GI50 in the assay with OVCAR-4, with SK-MEL-2 and in the assay on SNB-75 were > 10 µM (inactive), > 100 µM (inactive) and > 100 µM (inactive), respectively.
For `CC1=NN(c2ccccc2)C(=O)C1=C1SCCS1`, the GI50 with 786-0 was > 72.9 µM (inactive); in the assay with A498, > 77.1 µM (inactive); in the assay on A549, > 70 µM (inactive); in the assay with ACHN, 97.1 µM (inactive); with CAKI-1 it was > 78.9 µM (inactive); in the assay on COLO 205, 25.1 µM (inactive). The concentration for 50% growth inhibition (GI50) with HCT-15 was 40.9 µM; with HOP-62, > 100 µM (inactive); with IGROV-1, 82.4 µM (inactive); with K562 it was 43.6 µM (inactive); in the assay on MOLT-4, 15 µM (inactive); in the assay with NCI-H23 it was > 100 µM (inactive). Further, the GI50 is 50.7 µM (inactive) with NCI-H460, > 100 µM (inactive) in the assay with OVCAR-4, > 100 µM (inactive) in the assay on SK-MEL-2 and > 88.1 µM (inactive) in the assay with SNB-75.
Take `CN(C)CCNC(=O)c1cccc2c1nc(-c1ccncc1)c1ccccc12`: the GI50 in the assay with 786-0 was 3.66 µM (inactive); in the assay with A498, 1.15 µM (inactive); in the assay with A549, 0.552 µM (active); with ACHN, 1.65 µM (inactive); in the assay on CAKI-1 it was 1.81 µM (inactive); in the assay on COLO 205 it was 1.61 µM (inactive). The concentration for 50% growth inhibition (GI50) with HCT-15 is 1.99 µM; with HOP-62 it was 3.78 µM (inactive); in the assay with IGROV-1, 1.02 µM (active); with K562, 3.14 µM (inactive); in the assay with MOLT-4 it was 0.0316 µM (active); in the assay on NCI-H23, 3.07 µM (inactive). For the same compound, the 50% growth inhibitory concentration (GI50) was 0.0408 µM (active) with NCI-H460, 4.01 µM (inactive) in the assay with OVCAR-4, 6.12 µM (inactive) with SK-MEL-2 and 3.36 µM (inactive) in the assay on SNB-75.
Consider `CC1(C)N=c2c(ncn2CCO)=C(C(N)=O)N1`, for which the GI50 in the assay with 786-0, in the assay on A498, in the assay with A549, with ACHN, in the assay on CAKI-1 and in the assay on COLO 205 was > 100 µM (inactive) each time. The GI50 with DU-145 is > 100 µM (inactive); in the assay on HCT-15 it was over 100 µM; in the assay on HOP-62, > 100 µM (inactive); in the assay on IGROV-1 it was > 100 µM (inactive); in the assay with K562, > 100 µM (inactive); with MDA-MB-231, > 100 µM (inactive). Also, the GI50 in the assay with MDA-MB-435, with NCI-H23, in the assay on NCI-H460 and in the assay on OVCAR-4 was > 100 µM (inactive) each time.
On to `CCOc1ccc2c(c1)[n+]([O-])c(S(=O)(=O)c1ccc(C)cc1)c(N)[n+]2[O-]`, for which the GI50 in the assay on 786-0, in the assay with A498, in the assay with A549, in the assay with ACHN, in the assay with CAKI-1 and in the assay with COLO 205 was > 100 µM (inactive) in each case. In addition, the GI50 in the assay on HOP-62, with IGROV-1, in the assay on K562, in the assay with MOLT-4, with NCI-H23 and in the assay on NCI-H460 was > 100 µM (inactive) each time. For the same compound, the GI50 in the assay with OVCAR-4 was > 100 µM (inactive); in the assay with SK-MEL-2, > 100 µM (inactive); in the assay with SNB-75 it was 91.6 µM (inactive).
On to `CCOC(=O)/C=C(/C(=O)OCC)n1cc(C)c(=O)n(Cc2cn(CCCCOC(C)=O)nn2)c1=O`, for which the GI50 in the assay on 786-0 was 6.49 µM (inactive); with A549, 27 µM (inactive); with ACHN, 5.09 µM (inactive); in the assay on CAKI-1 it was 2.84 µM (inactive); in the assay on COLO 205 it was 3.55 µM (inactive); with DU-145, 34.4 µM (inactive). Moreover, the GI50 with HCT-15 was 4.76 µM; in the assay on HOP-62, 33.6 µM (inactive); with IGROV-1, 15.2 µM (inactive); with K562, 4.14 µM (inactive); with MDA-MB-231, 27.6 µM (inactive); with MDA-MB-435, 10.7 µM (inactive). For the same compound, the GI50 in the assay with MOLT-4 was 5.05 µM (inactive); in the assay with NCI-H23 it was 16.5 µM (inactive); in the assay with NCI-H460 it was 10.7 µM (inactive); with OVCAR-4, 19.7 µM (inactive); in the assay with SK-MEL-2, 20.1 µM (inactive); in the assay with SNB-75, 16.3 µM (inactive).
As to `CCc1cccc(C(C)CC)c1NC(=O)C(=O)Cc1nc2ccccc2o1` (configuration not stated), the GI50 in the assay on 786-0, in the assay on A498, with A549, in the assay with ACHN, with CAKI-1 and with COLO 205 was > 50 µM (inactive) throughout. Also, the 50% growth inhibitory concentration (GI50) with HCT-15 was over 50 µM; in the assay on HOP-62, > 50 µM (inactive); in the assay with IGROV-1 it was > 50 µM (inactive); in the assay with K562 it was > 50 µM (inactive); with MOLT-4 it was > 34.5 µM (inactive); in the assay on NCI-H23, > 50 µM (inactive). Besides, the GI50 in the assay with NCI-H460, with OVCAR-4, in the assay with SK-MEL-2 and in the assay on SNB-75 was > 50 µM (inactive) throughout.
On to `CCOC(=O)Cn1c(=O)c2nc(SC)sc2n(CC)c1=S`, for which the 50% growth inhibitory concentration (GI50) was 0.173 µM (active) in the assay on 786-0; > 100 µM (inactive) in the assay on A549; > 100 µM (inactive) in the assay with ACHN; > 100 µM (inactive) in the assay on COLO 205; > 100 µM (inactive) in the assay on DU-145; 65.5 µM in the assay with HCT-15. Besides, the GI50 in the assay on HOP-62 is > 100 µM (inactive); with IGROV-1, 94 µM (inactive); in the assay on K562, > 100 µM (inactive); with MDA-MB-231, > 100 µM (inactive); with MDA-MB-435, 1.71 µM (inactive); in the assay on MOLT-4, > 100 µM (inactive). Also, the GI50 is > 100 µM (inactive) in the assay on NCI-H23; > 100 µM (inactive) in the assay on NCI-H460; 59.8 µM (inactive) with OVCAR-4; > 100 µM (inactive) in the assay on SK-MEL-2; 9.38 µM (inactive) in the assay on SNB-75.
For the compound `Cc1cc(Cl)ccc1NC(=O)C(=O)Cc1occc(=O)c1O`, the GI50 in the assay with 786-0, in the assay on A498, in the assay on A549, in the assay with ACHN, in the assay with CAKI-1 and in the assay with COLO 205 was > 100 µM (inactive) in each case. Further, the GI50 was over 100 µM in the assay with HCT-15; > 100 µM (inactive) in the assay on HOP-62; > 100 µM (inactive) in the assay with IGROV-1; > 100 µM (inactive) with K562; > 100 µM (inactive) in the assay with MOLT-4; > 100 µM (inactive) in the assay with NCI-H23. The GI50 in the assay on NCI-H460, in the assay with OVCAR-4, in the assay on SK-MEL-2 and in the assay with SNB-75 was > 100 µM (inactive) throughout.

The values are drawn from ChEMBL document CHEMBL1201862, “PubChem BioAssay data set” (2004).
